Test results from patent EP1200059B1, “SKIN CARE COMPOSITION” (UNILEVER PLC, priority 1999, dated 2001).
“Also recorded” adds a separate entry of the source. Like-named read-outs stand apart in the source and are kept apart here. Values belong to the compound of their own block, whether it stands above or below them.

Key:
[1] = system: LRAT and ARAT catalysed retinol esterification; assay: in vitro Microsomal Assay, overall verdict on retinol esterification (LRAT and ARAT); details: verdict on the table results
[2] = molecular target: T1, lecithin retinol acyl transferase (LRAT) (Bos taurus, UniProt Q9BGL2); assay: in vitro Microsomal Assay of retinol esterification, LRAT catalysed (retinyl laurate formation); details: for % INHIB. LRAT: Table 5; for % INHIBITION, LRAT: Table 6A, 100µM
T1 sequence (Q9BGL2 1-230): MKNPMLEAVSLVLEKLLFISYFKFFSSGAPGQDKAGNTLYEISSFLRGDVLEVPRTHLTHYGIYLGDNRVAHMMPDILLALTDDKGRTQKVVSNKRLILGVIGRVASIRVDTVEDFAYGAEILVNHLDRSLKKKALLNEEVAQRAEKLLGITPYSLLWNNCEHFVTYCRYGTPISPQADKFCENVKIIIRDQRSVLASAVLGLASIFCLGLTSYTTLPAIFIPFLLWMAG

[3] = system: acyl CoA retinol transferase (ARAT); assay: in vitro Microsomal Assay of retinol esterification, ARAT catalysed (retinyl palmitate formation)
[4] = system: procollagen-I synthesis in human dermal fibroblasts; assay: Dot blot assay for procollagen-I protein in dermal fibroblast conditioned medium; format: cell-based; details: 24 hours, control = 100%
Method: (§1) Primary human foreskin fibroblasts at passage 2 (P2) were seeded into 12-well plates at 10000 cells/cm^2 and maintained for 24 hours in an atmosphere of 5% carbon dioxide and 4% oxygen in Dulbeccos Modified Eagles Medium (DMEM) supplemented with 10% foetal calf serum. After this time the cells were washed with serum free DMEM and then incubated in fresh serum free DMEM for a further 60 hours. The fibroblast monolayers were then washed again with serum free DMEM. Test reagents and vehicle controls were added to the cells in triplicate in a final volume of 0.4ml/well fresh serum free DMEM and incubated for a further 24 hours. This fibroblast conditioned medium was either analysed immediately or snap frozen in liquid nitrogen and stored at -70°C for future analysis. The cells were then counted and data from the dot-blot analysis subsequently standardised to cell number. […]
(§2) At the end of this time the exposed screen was scanned by a phosphorimager (Molecular Dynamics Phosphorimager SF) using ImageQuant™ software. Dot intensity was assessed by computer-assisted image analysis using the quantification tools in ImageQuant™, standardised to cell number and the effects of various test reagents on decorin and procollagen-I synthesis were determined relative to a vehicle treated control value of 100 arbitrary units. […]

[5] = system: decorin synthesis in human dermal fibroblasts; assay: Dot blot assay for decorin protein in dermal fibroblast conditioned medium; format: cell-based; details: 24 hours, relative to vehicle control = 100
Method: as §1, §2

inhibition at 100 µM ([2]; read-out: % INHIBITION, LRAT): 0%
% INHIBITION, ARAT ([3]; Table 7, 100 µM): 0%
Compound: CC12CCC(CC1=O)C2(C)C (centres unmarked) [Camphor]

inhibition at 10 µM ([2]; read-out: % INHIBITION, LRAT): 29%
inhibition at 100 µM ([2]; read-out: % INHIBITION, LRAT): 79%
Compound: C/C=C/C(=O)C1=C(C)C=CCC1(C)C [Damascenone]

inhibition at 10 µM ([2]; read-out: % INHIBITION, LRAT): 64%
inhibition at 100 µM ([2]; read-out: % INHIBITION, LRAT): 95%
Compound: C/C=C/C(=O)C1C(C)C=CCC1(C)C (centres unmarked) [Delta damascone]

% INHIBITION, LRAT [2]: 49%
Compound: CCOC(=O)C1=C(C)C=CCC1(C)C [Ethyl saffranate]

inhibition at 100 µM ([2]; read-out: % INHIBITION, LRAT): 0%
% INHIBITION, ARAT ([3]; Table 7, 100 µM): 0%
Compound: CC12CCC(CC1)C(C)(C)O2 [Eucalyptol]

inhibition at 10 µM ([2]; read-out: % INHIB. LRAT): 10%
inhibition at 100 µM ([2]; read-out: % INHIB. LRAT): 43%
% INHIB. ARAT ([3]; Table 8, 10 µM): 20%
% INHIB. ARAT ([3]; Table 8, 100 µM): 43%
Compound: CC(C)=CCCC(C)=CCCC(C)=CCO [Farnesol]
retinol esterification inhibition (result in words) [1]: inhibit retinol esterification

% INHIBITION, ARAT ([3]; Table 7, 100 µM): 12%
Compound: CC12CCC(C1)C(C)(C)C2O (centres unmarked) [Fenchyl alcohol]

% INHIBITION, LRAT [2]: 38%
Compound: CC(=O)/C(C)=C/C1C(C)=CCCC1(C)C (centres unmarked) [Gamma methyl ionone]

inhibition at 10 µM ([2]; read-out: % INHIB. LRAT): 16%
inhibition at 100 µM ([2]; read-out: % INHIB. LRAT): 77%
% INHIB. ARAT ([3]; Table 8, 10 µM): 38%
% INHIB. ARAT ([3]; Table 8, 100 µM): 81%
Compound: CC(C)=CCC/C(C)=C/CC/C(C)=C/CC/C(C)=C/CO [Geranyl Geraniol]
retinol esterification inhibition (result in words) [1]: inhibit retinol esterification; also recorded: potent inhibitor of retinol esterification

% INHIBITION, LRAT [2]: 45%
Compound: CC1=CCCC(C)(C)C1/C=C/C(=O)CC(C)C (centres unmarked) [Isobutyl ionone]

inhibition at 100 µM ([2]; read-out: % INHIBITION, LRAT): 16%
% INHIBITION, ARAT ([3]; Table 7, 100 µM): 18%
Compound: CC1=CC(C)C(CO)C(C)C1 (centres unmarked) [Isocyclogeraniol]

% INHIBITION, LRAT [2]: 92%
% INHIBITION, ARAT ([3]; Table 6A, 100µM): 80%
Compound: CC=CC(=O)C1CCC(C)(C)C=C1C (centres unmarked) [Isodamascone]

inhibition at 10 µM ([2]; read-out: % INHIB. LRAT): 11%
inhibition at 100 µM ([2]; read-out: % INHIB. LRAT): 51%
Compound: CCCCC/C=C\C/C=C\CCCCCCCC(=O)N(CCO)CCO [Linoleamide-DEA (LODEA), Linoleamide-DEA]
retinol esterification inhibition (result in words) [1]: potent retinol esterification inhibitors

% INHIBITION, ARAT ([3]; Table 6A, 100µM): 76%
Compound: CC(C)(O)CCCC1=CCC(C=O)CC1 (centres unmarked) [Lyral]

inhibition at 100 µM ([2]; read-out: % INHIBITION, LRAT): 0%
Compound: CC(C)[C@@H]1CC[C@@H](C)CC1=O [Mentone]

inhibition at 100 µM ([2]; read-out: % INHIBITION, LRAT): 0%
% INHIBITION, ARAT ([3]; Table 7, 100 µM): 0%
Compound: Cc1ccc(C(C)C)c(O)c1 [Thymol]

inhibition at 100 µM ([2]; read-out: % INHIBITION, LRAT): 0%
% INHIBITION, ARAT ([3]; Table 7, 100 µM): 0%
Compound: COc1cc(C=O)ccc1O [Vanillin]

inhibition at 100 µM ([2]; read-out: % INHIB. LRAT): 0%
% INHIB. ARAT ([3]; Table 5, 100 μM): 0%
Compound: Nc1ncnc2nc[nH]c12 [adenine]

inhibition at 10 µM ([2]; read-out: % INHIBITION, LRAT): 87%
inhibition at 100 µM ([2]; read-out: % INHIBITION, LRAT): 98%
% INHIBITION, ARAT ([3]; Table 6A, 100µM): 83%
% INHIBITION, ARAT ([3]; Table 6B, 10µM): 67%
Compound: CC=CC(=O)C1C(C)=CCCC1(C)C (stereo not drawn) [alpha damascone]

inhibition at 100 µM ([2]; read-out: % INHIB. LRAT): 0%
% INHIB. ARAT ([3]; Table 5, 100 μM): 0%
Compound: O=C(NCO)N(CO)C1(CO)C(=O)NC(=O)N1CO (centres unmarked) [diazolidinyl urea]

inhibition at 100 µM ([2]; read-out: % INHIB. LRAT): 0%
% INHIB. ARAT ([3]; Table 5, 100 μM): 0%
Compound: O=c1cc[nH]c(=O)[nH]1 [uracil]

% INHIBITION, LRAT [2]: 12%
% INHIBITION, ARAT ([3]; Table 6A, 100µM): 23%
Compound: Sandalone

% INHIBITION, LRAT [2]: 43%
% INHIBITION, ARAT ([3]; Table 6A, 100µM): 15%
Compound: Sandanol

% INHIB. LRAT ([2]; 100 μM): 0%
Compound: disodium cocamphodiacetate

Continued, compound first:

Compound: CCCCCCCCCCCCC/C=C/[C@@H](O)[C@H](CO)NC(C)=O [Acetyl Sphingosine]
retinol esterification inhibition (result in words) [1]: potent retinol esterification inhibitors
% INHIB. LRAT ([2]; 10 μM): 10%
% INHIB. LRAT ([2]; 100 μM): 50%
% INHIB. ARAT ([3]; Table 5, 10 μM): 19%
% INHIB. ARAT ([3]; Table 5, 100 μM): 62%

Compound: CC1=CCCC(C)(C)C1/C=C/C(C)O (stereo not drawn) [Alpha ionol]
inhibition at 100 µM ([2]; read-out: % INHIBITION, LRAT): 0%

Compound: CCC(=O)/C=C/C1C(C)=CCCC1(C)C (stereo not drawn) [Alpha methyl ionone]
% INHIBITION, LRAT [2]: 77%
% INHIBITION, ARAT ([3]; Table 6A, 100µM): 67%

Compound: C/C=C/C(=O)C1=C(C)CCCC1(C)C [Beta damascone]
inhibition at 10 µM ([2]; read-out: % INHIBITION, LRAT): 52%
inhibition at 100 µM ([2]; read-out: % INHIBITION, LRAT): 92%

Compound: CC1=C(/C=C/C(C)O)C(C)(C)CCC1 (stereo not drawn) [Beta ionol]
inhibition at 100 µM ([2]; read-out: % INHIBITION, LRAT): 0%

Compound: CC1=CCC(CCC(C)CO)C1(C)C (centres unmarked) [Brahmanol]
inhibition at 100 µM ([2]; read-out: % INHIBITION, LRAT): 75%
% INHIBITION, ARAT ([3]; Table 6A, 100µM): 70%

Compound: C=C(C)C1CC=C(C)C(=O)C1 (centres unmarked) [Carvone]
inhibition at 100 µM ([2]; read-out: % INHIBITION, LRAT): 0%
% INHIBITION, ARAT ([3]; Table 7, 100 µM): 0%

Compound: O=CC=Cc1ccccc1 [Cinnamaldehyde]
inhibition at 100 µM ([2]; read-out: % INHIBITION, LRAT): 0%
% INHIBITION, ARAT ([3]; Table 7, 100 µM): 0%

Compound: CC(=O)CCC1C(C)=CCCC1(C)C (stereo not drawn) [Dihydro alpha ionone]
% INHIBITION, ARAT ([3]; Table 7, 100 µM): 13%

Compound: CCCCC/C=C\C/C=C\CCCCCCCC(=O)NCCO [Linoleamide-MEA (LOMEA), Linoleamide-MEA]
retinol esterification inhibition (result in words) [1]: potent retinol esterification inhibitors

Compound: CC(=O)c1cc2c(cc1C)C(C)(C)C(C)CC2(C)C (centres unmarked) [Tonalid]
inhibition at 100 µM ([2]; read-out: % INHIBITION, LRAT): 33%
% INHIBITION, ARAT ([3]; Table 6A, 100µM): 50%

Compound: CC(=O)c1cc2c(cc1C)C(C)(C)[C@H](C)[C@H]2C(C)C [Traseolide]
% INHIBITION, ARAT ([3]; Table 6A, 100µM): 41%

Compound: Cc1ncc(C[n+]2csc(CCO)c2C)c(N)n1 [thiamine]
inhibition at 100 µM ([2]; read-out: % INHIB. LRAT): 0%
% INHIB. ARAT ([3]; Table 5, 100 μM): 0%

Compound: CC1=C(/C=C/C(C)=C/C=C/C(C)=C/C(=O)O)C(C)(C)CCC1 [trans Retinoic acid, reference compound]
Procollagen 1 ([4]; 0.01 µM trans Retinoic acid): 102.8%

Compound: N[C@@H](Cc1c[nH]c2ccccc12)C(=O)O [tryptophan]
inhibition at 100 µM ([2]; read-out: % INHIB. LRAT): 0%
% INHIB. ARAT ([3]; Table 5, 100 μM): 0%

Compound: Ceramide 6
Decorin ([5]; 0.01 µM Ceramide 6): 101.2%

Compound: conjugated linoleic acid [CLA]
Decorin ([5]; 0.1 µM CLA): 96.8%
Procollagen 1 ([4]; 0.1 µM CLA): 78.9%
